Reference: patent US11673891B2, “Imidazopyrimidine compounds and uses thereof” (Dana-Farber Cancer Institute, Inc., priority 2017, dated 2023)

Tested on: THP1-Lucia cells
Assay: NF-kB-induced luminescence assay in THP1-Lucia cells
Format: cell-based, human
Details: in comparison to positive control R848, N=4
Method: THP-1 Cell Line and Culture Conditions. The THP1-Lucia™ cell line was obtained from Invivogen (San Diego, Calif.). THP1-Lucia cells, which are human monocytic cells derived from the blood of a child with leukemia, contain an NF-kB-inducible Luc reporter construct. This allows NF-kB activation to be measured by quantifying the luminescence from the secreted luciferase enzyme. THP1-Lucia cells were cultured in RPMI 1640 supplemented with 10% non-heat inactivated fetal bovine serum (FBS), 10 mM HEPES, 1.0 mM sodium pyruvate, 50 ug/ml Pen-Strep, and 100 ug/mL Normocin™. Once cultured, the cells were stored in a 37° C. incubator with 5% CO2 and a humidified atmosphere. Cells were passaged every 2-3 days and not allowed to exceed a concentration of 2.0×10^6 cells/ml media.
NF-kB-induced Luminescence Assay. THP1-Lucia cells between passage 15 and 18 and suspended in culture medium were dispensed into 384-well black clear-bottom plates (Corning 3712) at 30,000 cells/30 μl/well using a Combi liquid dispenser. […] Immediately after adding the substrate, the luminescence was read using a PerkinElmer Envision plate reader.

## CCC(C(=O)Nc1cc(-c2cn3cccnc3n2)ccc1C)c1ccccc1 (stereo not shown) [Compound 37]
  NF-κB-driven expression of luciferase in THP1 cells (in words): does not substantially activate THP1 cells
